Common to all, as to type: physicochemical
Series [1] is described as follows: Oxidation potential of ring-closed and ring-open isomers. Conditions: no unit printed in table (V relative to Ag/AgCl).
Series [2] is described as follows: UV/Vis absorbance at 400 nm and Yellowness Index of the ring-open isomer. The note with it: for Abs @ 400 nm, RO (Absorption of ring-open isomer at 400 nm): 2×10^−5 M solution, 1 cm pathlength cuvette. The essentials:
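Compound measured as a 2×10^−5 M solution in a 1 cm cuvette after photofading with visible light until visible absorption stabilized. Absorbance at 400 nm and Yellowness Index refer to this ring-open isomer.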

The nature of series [3]: Solubility in Rhodiasolv IRIS solvent. Conditions: for Solubility in Rhodiasolv IRIS: Rhodiasolv IRIS (dimethyl-2-methyl glutarate), wt %; for Solubility (in words): relative to the methoxy parent chromophore. From the text:
A compound with greater solubility allows for a formulation or material with a greater concentration of coloured molecule to be incorporated into a composition. This may allow for increasing the contrast ratio for a compound with a lesser absorbance at PSS. Examples of solubilizing groups for the compound include alkoxy, ether, ester or siloxy groups. In various embodiments, compounds may be soluble in the solvent component at room temperature at about 6 wt %, 7 wt %, 8 wt %, 9 wt %, 10 wt % or greater for testing to determine whether a compound has application as an exterior glazing or optical filter. If the solubility of a compound in the solvent component is too low, then insufficient darkening may be achieved in the ring-closed configuration, depending on conditions of use for the compound.
Chromophore solutions in Rhodiasolv IRIS were prepared at 1 to 10 wt % loading. Solutions were prepared in a glovebox by charging the chromophore and Rhodiasolv IRIS to a trace-clean vial, and the solution was stirred on a hotplate at 90° C. for 2-24 hours. After cooling, the chromophore solution was injected into glass weathering cells and the fill and vent ports were sealed with a thin disc of Kalrez (FFKM Perfluorinated Elastomer) and secured with a clamp and set-screw. The weathering cells were filled and sealed inside the glove box.

Series [4] can be described thus: Photostability: xenon arc weathering of chromophore solutions, LCMS analysis. Conditions: for Ketone (%) / Minus-2HF (%) / Minus-HF (%) / Sulfone (%) / Chromophore Remaining (%): xenon arc, 82° C. bp; for Ketone (%) / Minus-2HF (%) / Minus-HF (%) / Sulfone (%): linearly interpolated to 0.5 MJ/m2 @ 340 nm; for Chromophore Remaining (%): linearly interpolated to 0.5 MJ/m2 @ 340 nm of exposure energy; for Ratio of chromophore remaining relative to S340: interpolated to 0.5 MJ/m^2 of energy exposure at 340 nm; for Photostability (in words): weathering experiments. The essentials: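 Chromophores were dissolved at 1 to 10 wt % in Rhodiasolv IRIS at 90° C, then sealed under glovebox conditions in glass cells laminated with 400 nm UV-cutoff PVB. The cells were weathered continuously in a xenon arc chamber with no dark or spray cycles. Solutions were then diluted in acetonitrile and analysed by reverse-phase LC-MS.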

For the molecule `CCOC(=O)CCCOc1cc2oc(-c3ccc(C(C)(C)C)cc3)c(C3=C(c4cc(-c5ccc(C(C)(C)C)s5)sc4-c4ccc(C(C)(C)C)s4)C(F)(F)C(F)(F)C3(F)F)c2cc1OCCCC(=O)OCC` [Chromophore S374, diethyl 4,4′-((2-(4-(tert-butyl)phenyl)-3-(2-(5,5″-di-tert-butyl-[2,2′:5′,2″-terthiophen]-3′-yl)-3,3,4,4,5,5-hexafluorocyclopent-1-en-1-yl)benzofuran-5,6-diyl)bis(oxy))dibutanoate], in series [1], the “RC [O] (oxidation potential of ring-closed isomer)” value (shortened to “RC [O]”) was 0.93 and the “RO [O] (oxidation potential of ring-open isomer)” value (“RO [O]” for short) is given as 1.35. Also, in series [2], the “YI (Yellowness Index)” value stood at 6.76 and the “Abs @ 400 nm, RO (Absorption of ring-open isomer at 400 nm)” value (from here on “Abs @ 400 nm, RO”) is listed as 0.144. Also, in series [3], the “Solubility in Rhodiasolv IRIS” value is given as greater than 10% and the “Solubility (in words)” value is “improved”. Besides, in series [4] (10 wt % in Rhodiasolv IRIS), the “Ketone (%)” value turned out to be 0.0%, the “Minus-2HF (%)” value is 0.0%, the “Minus-HF (%)” value is listed as 26.5% and the “Sulfone (%)” value is reported as 0.0%. Moreover, in series [4] (10 wt % in Rhodiasolv IRIS), the “Chromophore Remaining (%)” value came out at 72.4%. The “Ratio of chromophore remaining relative to S340” value in series [4] (10 wt %) was determined as 0.79. Moreover, the “Photostability (in words)” value in series [4] is recorded as “decreased stability”.

`COc1cc2oc(-c3ccc(C(C)(C)C)cc3)c(C3=C(c4cc(-c5cc(C(C)(C)C)cs5)sc4-c4cc(C(C)(C)C)cs4)C(F)(F)C(F)(F)C3(F)F)c2cc1OC` [Chromophore S377, 2-(4-(tert-butyl)phenyl)-3-(2-(4,4″-di-tert-butyl-[2,2′:5′,2″-terthiophen]-3′-yl)-3,3,4,4,5,5-hexafluorocyclopent-1-en-1-yl)-5,6-dimethoxybenzofuran]: in series [1], the “RC [O]” value was 0.97 and the “RO [O]” value stood at 1.42. For the same molecule, in series [2], the “YI (Yellowness Index)” value came to 4.89 and the “Abs @ 400 nm, RO” value is given as 0.101. The “Solubility in Rhodiasolv IRIS” value in series [3] is greater than 5%. In series [4] (5 wt % in Rhodiasolv IRIS), the “Ketone (%)” value turned out to be 0.0%, the “Minus-2HF (%)” value is given as 0.0%, the “Minus-HF (%)” value was found to be 0.0% and the “Sulfone (%)” value came out at 0.0%. For the same molecule, in series [4] (5 wt % in Rhodiasolv IRIS), the “Chromophore Remaining (%)” value stood at 100.0%. Moreover, in series [4] (5 wt %), the “Ratio of chromophore remaining relative to S340” value is on record as 1.10. In addition, the “Photostability (in words)” value in series [4] was “high photostability”.

As to `COc1cc2oc(-c3ccc(C(C)(C)C)cc3)c(C3=C(c4cc(-c5ccc(C(C)(C)C)s5)sc4-c4sc(C(C)(C)C)cc4C)C(F)(F)C(F)(F)C3(F)F)c2cc1OC` [Chromophore S378, 2-(4-(tert-butyl)phenyl)-3-(2-(5,5″-di-tert-butyl-3-methyl-[2,2′:5′,2″-terthiophen]-3′-yl)-3,3,4,4,5,5-hexafluorocyclopent-1-en-1-yl)-5,6-dimethoxybenzofuran], in series [1], the “RC [O]” value is given as 0.9 and the “RO [O]” value came to 1.36. In series [2], the “YI (Yellowness Index)” value came out at 4.94 and the “Abs @ 400 nm, RO” value is 0.127. Also, the “Solubility in Rhodiasolv IRIS” value in series [3] is given as less than 5%. For the same molecule, the “Formation of the Minus-HF degradation product (in words)” value in series [4] was “does not occur”. Besides, in series [4] (3 wt % in Rhodiasolv IRIS), the “Ketone (%)” value was determined as 0.0%, the “Minus-2HF (%)” value is 0.0%, the “Minus-HF (%)” value came out at 0.0% and the “Sulfone (%)” value stood at 7.5%. In addition, the “Chromophore Remaining (%)” value in series [4] (3 wt % in Rhodiasolv IRIS) amounted to 92.5%. In addition, the “Ratio of chromophore remaining relative to S340” value in series [4] (3 wt %) worked out at 1.02.

Regarding `CCOC(=O)CCCOc1cc2oc(-c3ccc(C(C)(C)C)cc3)c(C3=C(c4cc(-c5ccc(C(C)(C)C)s5)sc4-c4sc(C(C)(C)C)cc4C)C(F)(F)C(F)(F)C3(F)F)c2cc1OCCCC(=O)OCC` [Chromophore S383, diethyl 4,4′-((2-(4-(tert-butyl)phenyl)-3-(2-(5,5″-di-tert-butyl-3-methyl-[2,2′:5′,2″-terthiophen]-3′-yl)-3,3,4,4,5,5-hexafluorocyclopent-1-en-1-yl)benzofuran-5,6-diyl)bis(oxy))dibutanoate], in series [1], the “RC [O]” value is reported as 0.91 and the “RO [O]” value came to 1.36. In series [2], the “YI (Yellowness Index)” value stood at 4.52 and the “Abs @ 400 nm, RO” value stood at 0.144. For the same molecule, in series [3], the “Solubility in Rhodiasolv IRIS” value is greater than 10% and the “Solubility (in words)” value is on record as “improved solubility”. Also, the “Formation of the Minus-HF degradation product (in words)” value in series [4] is listed as “does not occur”. Also, in series [4] (10 wt % in Rhodiasolv IRIS), the “Ketone (%)” value amounted to 0.0%, the “Minus-2HF (%)” value is listed as 0.0%, the “Minus-HF (%)” value amounted to 0.0% and the “Sulfone (%)” value is reported as 0.0%. Moreover, the “Chromophore Remaining (%)” value in series [4] (10 wt % in Rhodiasolv IRIS) came to 100.0%. The “Ratio of chromophore remaining relative to S340” value in series [4] (10 wt %) stood at 1.10.

For `CCOC(=O)CCCOc1cc2oc(-c3ccc(C(C)(C)C)cc3)c(C3=C(c4cc(-c5sc(C(C)(C)C)cc5C)sc4-c4sc(C(C)(C)C)cc4C)C(F)(F)C(F)(F)C3(F)F)c2cc1OCCCC(=O)OCC` [Chromophore S384, diethyl 4,4′-((2-(4-(tert-butyl)phenyl)-3-(2-(5,5″-di-tert-butyl-3,3″-dimethyl-[2,2′:5′,2″-terthiophen]-3′-yl)-3,3,4,4,5,5-hexafluorocyclopent-1-en-1-yl)benzofuran-5,6-diyl)bis(oxy))dibutanoate], in series [1], the “RC [O]” value was 0.87 and the “RO [O]” value worked out at 1.31. Besides, in series [2], the “YI (Yellowness Index)” value was found to be 4.13 and the “Abs @ 400 nm, RO” value came out at 0.107. In addition, in series [3], the “Solubility in Rhodiasolv IRIS” value is greater than 10%. For the same molecule, the “Formation of the Minus-HF degradation product (in words)” value in series [4] is given as “does not occur”. Besides, in series [4] (10 wt % in Rhodiasolv IRIS), the “Ketone (%)” value amounted to 0.0%, the “Minus-2HF (%)” value is reported as 0.0%, the “Minus-HF (%)” value is on record as 0.0% and the “Sulfone (%)” value is 1.3%. Further, the “Chromophore Remaining (%)” value in series [4] (10 wt % in Rhodiasolv IRIS) stood at 97.2%. In addition, in series [4] (10 wt %), the “Ratio of chromophore remaining relative to S340” value was 1.07.

Regarding `CCOC(=O)CCCOc1cc2oc(-c3ccc(C(C)(C)C)cc3)c(C3=C(c4cc(-c5cc(C(C)(C)C)cs5)sc4-c4cc(C(C)(C)C)cs4)C(F)(F)C(F)(F)C3(F)F)c2cc1OCCCC(=O)OCC` [Chromophore S386, diethyl 4,4′-((2-(4-(tert-butyl)phenyl)-3-(2-(4,4″-di-tert-butyl-[2,2′:5′,2″-terthiophen]-3′-yl)-3,3,4,4,5,5-hexafluorocyclopent-1-en-1-yl)benzofuran-5,6-diyl)bis(oxy))dibutanoate], in series [1], the “RC [O]” value was found to be 0.99 and the “RO [O]” value came out at 1.4. Also, in series [2], the “YI (Yellowness Index)” value came to 4.05 and the “Abs @ 400 nm, RO” value was determined as 0.113. The “Solubility in Rhodiasolv IRIS” value in series [3] is recorded as greater than 10%. In series [4], the “Formation of the Minus-HF degradation product (in words)” value is given as “prevents the Minus-HF product” and the “Photostability (in words)” value is “high photostability”. In addition, in series [4] (10 wt % in Rhodiasolv IRIS), the “Ketone (%)” value worked out at 0.0%, the “Minus-2HF (%)” value was 0.0%, the “Minus-HF (%)” value turned out to be 0.0% and the “Sulfone (%)” value is given as 0.0%. Further, the “Chromophore Remaining (%)” value in series [4] (10 wt % in Rhodiasolv IRIS) came to 98.6%. In series [4] (10 wt %), the “Ratio of chromophore remaining relative to S340” value came out at 1.08.

Source of the values: patent US20220220100A1 (SOLUTIA CANADA INC., priority 2019, published 2022).
